Values of other authors, collected in patent US20030118473A1, “Method and apparatus for ozone decontamination of biological liquids” (priority 2001, published 2003).

Test system: hepatitis C infection
Conditions: preliminary research on hepatitis C infection; ozone therapy

O=[O+][O-] [ozone, Ozone]
effect on hepatic enzymes (SGOT, SGPT, alkaline phosphatase): significantly normalize hepatic enzymes
